Test results published in patent publication US20200108043A1, “COMPOUNDS AND COMPOSITIONS FOR EXTENDING LIFESPAN OF A SUBJECT” (YALE UNIVERSITY, priority 2017, published 2020).
“Also recorded” adds a separate entry of the source. Counter-ions that a name gives are not always drawn.

What follows are molecules tested on Saccharomyces cerevisiae (assay: High-Life (High throughput replicative Lifespan measurement) flow cytometry assay in MEP yeast). Conditions: 10 μM, 24 hours in culture, 3-4 replicate wells, repeat of screen hits.
Format: cell-based
Experimental: Cells were labeled with NHS-fluorescein as described above, then diluted to 20 cells/μL in media. 80 μL/well was aliquoted to 384-well plates, which were covered with a breathable membrane and placed on a shaker platform in a humidified incubator. After 3 hours, the plates were removed from the incubator and each well was treated with 20 μL pre-warmed, 30° C. 5 μM β-estradiol in media. In the case of ibuprofen or compound-treated wells, the compound was diluted in this volume at a 5× concentration to achieve a final concentration of 10 μM, or 100 μM for ibuprofen. The plates were then returned to the incubator. At indicated times, one plate was removed from the incubator and placed on an autosampler cooled to 8° C. attached to a Stratedigm flow cytometer. The cytometer was set to automatically add and mix 20 μL of aqueous solution containing 60 μg/mL CF405M-WGA (Biotium 29028) and propidium iodide (Sigma P4864) prior to acquiring 80 μL of sample for each well.
In order to test the lifespan of model organisms on both a large-scale and with quick turn-around, a massively multiplexed method was developed to measure replicative lifespan in the short-lived model organisms Saccharomyces cerevisiae. The protocol uses green-fluorescent labeling to identify progenitor cells, red-fluorescent labeling to differentiate non-viable cells, and blue-fluorescent labeling of bud scars to determine replicative age (FIG. 1). Each parameter is measured using a flow cytometer.
To achieve high throughput, the measurement system was automated, and the assay was performed in 384-well plates. The assay was performed using an autosampler-equipped flow cytometer, in a volume of 100 μL. Growth of even a single cell and its progeny in such a small volume will result in nutrient starvation before the natural replicative lifespan is exhausted; therefore to circumvent this issue, High-Life experiments were performed in the background of the Mother Enrichment Program (MEP) (Lindstrom and Gottschling, Genetics. 2009 October; 183(2):413-22). MEP strains express a CRE recombinase fused to an estrogen-binding domain for only a short time after birth. In the presence of β-estradiol, the recombinase translocates to the nucleus where it can excise two essential genes that have been modified to contain the exogenous LoxP sequence. Addition of β-estradiol to the media thus renders newborn daughters inviable without affecting existing mother cells, preventing exponential growth of the cell population and nutrient depletion (FIG. 2A).
The High-Life method was then tested to determine if it was suitable to screening for compounds that extend replicative lifespan. […] The effect of these compounds on High-Life readings was assayed after 24 hours in culture at 10 μM concentration. As a positive control, ibuprofen was used.

SMILES	average High-Life readings (progenitor fraction viable vs CF405M intensity) relative to controls
N.N.[Cl][Pt][Cl] [cisplatin]	at least slightly above controls
O=C(O)c1cc(=O)c2c(OCC(O)COc3cccc4oc(C(=O)O)cc(=O)c34)cccc2o1 [cromolyn sodium]	at least slightly above controls
CN1CCc2cccc3c2[C@H]1Cc1ccc(O)c(O)c1-3 [e hydrochloride]	at least slightly above controls
N=C(N)N/N=C/c1c(Cl)cccc1Cl [guanabenz acetate]	at least slightly above controls
Cc1ccc(Cl)c(Nc2ccccc2C(=O)O)c1Cl [meclofenamate sodium]	at least slightly above controls
O=[N+]([O-])c1ccc(O)c2ncccc12 [nitroxoline, 8-hydroxy-5-nitroquinoline]	at least slightly above controls
[H]/N=C(\N/C(=N/[H])Nc1ccc(Cl)cc1)NC(C)C [proguanil hydrochloride]	at least slightly above controls
Cn1c([N+](=O)[O-])cnc1COC(N)=O [ronidazole]	at least slightly above controls
CC(=O)OCC(=O)NCCCOc1cccc(CN2CCCCC2)c1 [roxatidine acetate hydrochloride]	at least slightly above controls

Same assay, conditions: 100 μM ibuprofen vs untreated, multiple time points 0-48 h

SMILES	replicative lifespan (High-Life)
CC(C)Cc1ccc(C(C)C(=O)O)cc1 (stereo not drawn) [ibuprofen]	increase in replicative lifespan was observed

Same assay, conditions: testing conditions identical to Example 3 (10 μM, 24 hours)

SMILES	lifespan extending properties (High-Life)
COc1c(C)c2c(c(O)c1CC1CC1(C)CCC(=O)O)C(=O)OC2 (stereo not drawn) [3-(2-((4-Hydroxy-6-methoxy-7-methyl-3-oxo-1,3-dihydroisobenzofuran-5-yl)methyl)-1-methylcyclopropyl)propanoic acid]	measurable lifespan extension in initial tests
COc1c(C)c2c(c(O)c1C/C=C(\C)CCC(=O)NCc1ccncc1)C(=O)OC2 [(E)-6-(4-hydroxy-6-methoxy-7-methyl-3-oxo-1,3-dihydroisobenzofuran-5-yl)-4-methyl-N-(pyridin-4-ylmethyl)hex-4-enamide]	at least some lifespan extending properties; also recorded: measurable lifespan extension in initial tests
Cn1cnc([N+](=O)[O-])c1Sc1ncnc2nc[nH]c12 [Azathioprine]	at least some lifespan extending properties
CN(C)CCCN1c2ccccc2Sc2ccc(Cl)cc21 [Chlorpromazine]	at least some lifespan extending properties
Cc1oncc1C(=O)Nc1ccc(C(F)(F)F)cc1 [Leflunomide]	at least some lifespan extending properties
CN(Cc1cnc2nc(N)nc(N)c2n1)c1ccc(C(=O)N[C@@H](CCC(=O)O)C(=O)O)cc1 [Methotrexate]	at least some lifespan extending properties
NC(=O)c1ncn([C@@H]2O[C@H](CO)[C@@H](O)[C@H]2O)c1O [Mizoribine]	at least some lifespan extending properties
Nc1nc2[nH]cc(CCc3ccc(C(=O)N[C@@H](CCC(=O)O)C(=O)O)cc3)c2c(=O)[nH]1 [Pemetrexed]	at least some lifespan extending properties
N=C(N)c1ccc(OCCCCCOc2ccc(C(=N)N)cc2)cc1 [Pentamidine]	at least some lifespan extending properties
CCN(CC)CCCC(C)Nc1c2ccc(Cl)cc2nc2ccc(OC)cc12 (stereo not drawn) [Quinacrine]	at least some lifespan extending properties
Cc1cc(NS(=O)(=O)c2ccc(N)cc2)no1 [Sulfamethoxazole]	at least some lifespan extending properties
COc1cc(Cc2cnc(N)nc2N)cc(OC)c1OC [Trimethoprim]	at least some lifespan extending properties

Same assay, conditions: testing conditions identical to Example 3 (10 μM, 24 hours); listed as 3-(2-((4-Hydroxy-6-methoxy-7-methyl-2-oxo-1,3-dihydroisobenzofuran-5-yl)methyl)-

SMILES	lifespan extending properties (High-Life)
COc1c(C)c2c(c(O)c1CC1CC1(C)CCC(=O)O)C(=O)OC2 (stereo not drawn) [3-(2-((4-Hydroxy-6-methoxy-7-methyl-3-oxo-1,3-dihydroisobenzofuran-5-yl)methyl)-1-methylcyclopropyl)propanoic acid]	at least some lifespan extending properties

What follows are molecules tested on S. cerevisiae (assay: not given). Conditions: 10 μM compound.
Format: cell-based
Experimental: To obtain the single-cell level data for the age and generation-durations of replicatively aging mother cells, data reported in Liu, P., et al., Cell Rep. 634-644 (2015) was re-analyzed. The data was collected in the same media condition (CSM 2% glucose) as reported elsewhere herein. Cells were grown for ˜24 hours in CSM 2% glucose prior to loading to the microfluidic device. Once cells were loaded, media was swapped to provide CSM 2% glucose control media (untreated), media containing DMSO as a vehicle control (American Bio AB00435), media containing 10 μM terreic acid (Sigma SML0480), media containing 10 μM mycophenolic acid (Sigma M5255), or media containing another compound at the indicated concentration. An automated microscope was used to track […], and replicative lifespan was later determined by counting the number of daughters produced before death. In the case of compound validation, only newborn cells were included in the lifespan experiment. To compare the replicative lifespan of labeled and unlabeled cells, only cells that were present within the traps at the start of the experiment were included. For these experiments, cells were loaded to the microfluidic device at an increased rate of 100 μL/min to increase the number of trapped mother cells. Green fluorescent images were also taken at the start of the experiment to confirm that the cells were visibly labeled.
Differences in lifespan characteristics were assessed through Log-Rank test using MATLAB with a cut-off value of P=0.05. The script for Log-Rank test was downloaded from MATLAB. Differences in proteasome activity were assessed using the unpaired, two-tailed, parametric t-test function of the GraphPad Prism software.
The Longevity Placement Test (LPT) was designed as a mutually exclusive, collectively exhaustive test to determine the relationship of a longevity intervention to a known genetic regulator of lifespan. For a given intervention that extends lifespan, any of three possible relationships may exist relative to a known genetic regulator of lifespan. (1) The intervention may act to extend lifespan independently from the known regulator. (2) The […] may act downstream from the known regulator, converging on a single component of the known regulator's lifespan pathway. (3) The intervention may act upstream from or upon the known regulator, ultimately modulating lifespan through the genetic regulator.
In Step 1 of the LPT, the longevity intervention is applied to a strain in which a genetic regulator of lifespan is deleted. In the event that lifespan extension from the longevity intervention is observed in this background, only possibilities (1) and (2) above remain valid (FIG. 7B). If no lifespan extension is observed, then possibilities (2) and (3) remain valid. Possibility (2) cannot be ruled out in this step, since non-saturating action by the genetic regulator could leave room for lifespan extension by the longevity intervention, while saturating action would preclude it.
In Step 2 of the LPT, an epistatic agent, which prevents lifespan extension from the longevity agent, is applied to a strain in which some upstream member of the genetic regulator's lifespan pathway has been modified to extend lifespan. This step differentiates possibility (2) from the remaining possibility after Step 1. In the event that lifespan extension from the genetic regulator's pathway is suppressed by the epistatic agent, this determines that possibility (2) is correct. In the event that no epistasis is observed, the remaining possibility, (1) or (3), is correct (FIG. 7C).

SMILES	toxicity in Replicator RLS experiment
O=[N+]([O-])c1ccc(O)c2ncccc12 [nitroxoline, 8-hydroxy-5-nitroquinoline]	toxic and caused most cells to arrest immediately

Same assay, conditions: 10 μM, supplied to young yeast cells throughout lifespan, vs untreated control

SMILES	lifespan of yeast cells (Replicator validation)
N=C(N)N/N=C/c1c(Cl)cccc1Cl [guanabenz acetate]	extend the lifespan
[H]/N=C(\N/C(=N/[H])Nc1ccc(Cl)cc1)NC(C)C [proguanil hydrochloride]	extend the lifespan

Same assay, conditions: 10 μg/mL folinic acid with 10 μM proguanil, Replicator device

SMILES	suppression of the longevity effect of proguanil
Nc1nc(=O)c2c([nH]1)NCC(CNc1ccc(C(=O)N[C@@H](CCC(=O)O)C(=O)O)cc1)N2C=O (mixture of isomers) [folinic acid]	able to suppress the longevity effect of proguanil
